Consider 27 molecules from ChEMBL document CHEMBL2396563, “Inhibitory constituents of the heartwood of Dalbergia odorifera on nitric oxide production in RAW 264.7 macrophages” (Bioorg Med Chem Lett, 2013).

Series [1] in a line: Cytotoxicity against mouse RAW264.7 cells by CCK assay. The format is cell-based.
The nature of series [2]: Antiinflammatory activity in mouse RAW264.7 cells assessed as inhibition of LPS-induced nitric oxide production after 24 hrs by Griess assay. The format is functional, cell-based. The settings on record: RAW264.7, 24 h. (The Griess reaction detects nitrite, a stable product of nitric oxide.)

Molecules are shown by their SMILES.

Consider `O=C1C[C@@H](c2cc(O)cc(O)c2)Oc2cc(O)cc(O)c21`, for which, in series [1], the Activity result was “Non-toxic”. Also, in series [2], the IC50 (commonly the concentration that gives 50% inhibition) is over 100 µM.

Turning to `COc1ccc2c(c1)O[C@H]1c3ccc(O)cc3OC[C@@H]21`, the Activity entry in series [1] was “Non-toxic”. Moreover, in series [2], the IC50 turned out to be 83.7 µM.

Consider `COc1cc(OC)c([C@H]2COc3cc(O)ccc3C2=O)cc1OC`, for which the Activity entry in series [1] is on record as “Non-toxic”. In addition, in series [2], the IC50 is over 100 µM.

With `COc1cc2c(cc1O)C(=O)C[C@@H](c1ccc(O)cc1)O2`, in series [1], the Activity entry is “Non-toxic”. The IC50 in series [2] is over 100 µM.

As for `COc1cc2oc(=O)cc(-c3ccc(O)c(O)c3)c2cc1O`, in series [1], the Activity entry is on record as “Non-toxic”. The 50% inhibitory concentration (IC50) in series [2] is 45.5 µM.

For `C=C[C@H](c1cccc(O)c1)c1cc(OC)c(OC)cc1OC`, the Activity result in series [1] is reported as “Non-toxic”. The IC50 in series [2] was 70.3 µM.

As for `C=C[C@H](c1ccccc1)c1cc(OC)c(OC)cc1O`, the Activity entry in series [1] is recorded as “Non-toxic”. In series [2], the concentration for half-maximal inhibition (IC50) stood at 73.9 µM.

On to `O=C(c1ccc(O)cc1O)[C@H](O)Cc1ccc(O)c(O)c1`, for which the Activity entry in series [1] is recorded as “Non-toxic”. The IC50 in series [2] was over 100 µM.

On to `O=C(c1ccc(O)cc1O)[C@H](O)Cc1ccc(O)cc1`, for which the Activity entry in series [1] was “Non-toxic”. For the same molecule, the IC50 in series [2] was over 100 µM.

As to `COc1cc2c(=O)c3ccccc3oc2cc1O`, the Activity entry in series [1] was “Non-toxic”. Besides, in series [2], the IC50 is over 100 µM.

On to `COc1ccc([C@@]2(O)COc3cc(O)ccc3C2=O)c(OC)c1`, for which the Activity result in series [1] is recorded as “Non-toxic”. Moreover, in series [2], the IC50 was over 100 µM.

For the molecule `COc1ccc(-c2coc3cc(O)ccc3c2=O)c(OC)c1` [2'-METHOXYFORMONETIN], the Activity entry in series [1] is recorded as “Non-toxic”. Further, the IC50 in series [2] is over 100 µM.

With `C=C[C@H](c1ccccc1O)c1cc(OC)c(OC)cc1OC` [5-O-METHYLLATIFOLIN], in series [1], the Activity entry is on record as “Non-toxic”. Further, in series [2], the IC50 amounted to 74 µM.

Regarding `COc1ccc([C@@H]2COc3cc(O)ccc3C2=O)c(OC)c1OC` [(3R)-3'-O-METHYLVIOLANONE], the Activity entry in series [1] is reported as “Non-toxic”. The IC50 in series [2] is over 100 µM.

On to `COc1ccc([C@@H]2COc3cc(O)ccc3C2=O)c(OC)c1` [(3R)-SATIVANONE], for which, in series [1], the Activity entry is reported as “Non-toxic”. Further, the IC50 in series [2] was over 100 µM.

As to `COc1ccc([C@@H]2COc3cc(O)ccc3C2=O)c(OC)c1O` [(3R)-VIOLANONE], the Activity result in series [1] is “Non-toxic”. Besides, the IC50 in series [2] was over 100 µM.

As to `O=C(/C=C/c1ccc(O)c(O)c1)c1ccc(O)cc1O` [BUTEIN], the Activity entry in series [1] is listed as “Non-toxic”. In addition, the IC50 in series [2] was determined as 35.1 µM.

`O=c1c(-c2ccc(O)cc2)coc2cc(O)ccc12` [DAIDZEIN]: the Activity entry in series [1] was “Non-toxic”. For the same molecule, in series [2], the half-inhibitory concentration (IC50) is over 100 µM.

For `COc1ccc(-c2coc3cc(O)ccc3c2=O)cc1` [FORMONONETIN], the Activity result in series [1] is on record as “Non-toxic”. The concentration for half-maximal inhibition (IC50) in series [2] is 56.1 µM.

On to `O=C(/C=C/c1ccc(O)cc1)c1ccc(O)cc1O` [ISOLIQUIRITIGENIN], for which the Activity entry in series [1] is “Non-toxic”. For the same molecule, the IC50 in series [2] is 72 µM.

In the case of `C=C[C@H](c1ccccc1O)c1cc(O)c(OC)cc1OC` [LATIFOLIN], in series [1], the Activity result was “Non-toxic”. For the same molecule, the IC50 in series [2] was 73.2 µM.

Regarding `COc1cc2oc(=O)cc(-c3ccc(O)cc3)c2cc1O` [MELANETTIN], the Activity result in series [1] was “Non-toxic”. In addition, the IC50 in series [2] was found to be 53.2 µM.

Consider `COc1cc(-c2coc3cc(O)cc(O)c3c2=O)c(OC)cc1O` [OLIBERGIN A], for which the Activity entry in series [1] is “Non-toxic”. For the same molecule, the IC50 in series [2] came to 45.5 µM.

In the case of `O=c1c(-c2ccc(O)c(O)c2)coc2cc(O)cc(O)c12` [OROBOL], in series [1], the Activity entry was “Non-toxic”. In addition, the IC50 in series [2] turned out to be 43.7 µM.

On to `N=C(N)NN` [PIMAGEDINE], for which, in series [2], the IC50 was determined as 16.6 µM.

As to `O=C1C[C@@H](c2ccccc2)Oc2cc(O)cc(O)c21` [PINOCEMBRIN], the Activity entry in series [1] is “Non-toxic”. Also, in series [2], the IC50 worked out at 18.1 µM.

For the molecule `COc1cc(O)c2c(c1)O[C@H](c1ccccc1)CC2=O` [PINOSTROBIN], the Activity result in series [1] is “Non-toxic”. Also, the IC50 in series [2] was determined as 53.5 µM.
